The record followed here is the NIST ThermoML archive (doi:10.1016/j.fluid.2018.04.020).

The conditions of this data set: 101.33 kPa, Liquid, Vibrating tube method.

The structures appear in SMILES notation. ± gives the expanded uncertainty stated by the source.

Consider `CCCC[n+]1ccc(C)cc1.N#CC(=C=[N-])C#N` [1-butyl-4-methylpyridinium tricyanomethanide], for which the mass density (in general, the mass of a sample divided by its volume) is, setting by setting: (293.15 K) 1038.3 ± 2.2 kg/m3; (303.15 K) 1032.1 ± 2.2 kg/m3; (313.15 K) 1025.7 ± 2.2 kg/m3; (323.15 K) 1019.7 ± 2.2 kg/m3.
Take `CCCC[N+]1(C)CCCC1.N#CC(=C=[N-])C#N` [1-butyl-1-methylpyrrolidinium tricyanomethanide]: the mass density by setting is: (293.15 K) 1008.9 ± 2.2 kg/m3; (303.15 K) 1003 ± 2.1 kg/m3; (313.15 K) 997.3 ± 2.1 kg/m3; (323.15 K) 991.4 ± 2.1 kg/m3.
